Several values for one entry are separate records, joined by “and”; a condition that tells them apart may be missing. Identical values can stand only once.
Tested on: 425362-245-T-J1 tumor spheroids, viability % test/control
Test: Anticancer human tumor 425362-245-T-J1 patient-derived melanoma cell line growth inhibition
Settings: spheroids with HUVEC and MSC; for viability, T/C: stronger effect = lower value
Summary of the method: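 Complex tumor spheroids combined malignant cells with endothelial cells and mesenchymal stem cells. DNA-damaging drugs and DNA repair inhibitors were tested alone and in combination, at half-log dilutions down from clinical Cmax (top 10 microM if Cmax unknown), 0.25% DMSO final.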

[1] = curve of first compound, second compound 0.003 µM
[2] = second compound 0.003 µM, first compound 0.0316 µM
[3] = second compound 0.003 µM, first compound 0.1 µM
[4] = second compound 0.003 µM, first compound 0.316 µM
[5] = second compound 0.003 µM, first compound 1 µM
[6] = second compound 0.003 µM, first compound 3.16 µM
[7] = second compound 0.003 µM, first compound 10 µM
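Note: spheroids exposed to agents for 7 days.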
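Throughout, for viability, T/C: 100% = DMSO vehicle control viability.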

Cc1cc(C)c(CNC(=O)c2cc(-c3ccc(CN4CCOCC4)cc3)cc3c2cnn3C2CCCC2)c(=O)[nH]1 + CC[C@@]1(O)C(=O)OCc2c1cc1n(c2=O)Cc2cc3c(CN(C)C)c(O)ccc3nc2-1
IC50 [1]: 3.21 µM | IC50 (curve of first compound, second compound 0.00949 µM): 1.96 µM | IC50 (curve of first compound, second compound 0.03 µM): < 0.0316 µM | IC50 (curve of first compound, second compound 0.0949 µM): < 0.0316 µM | IC50 (curve of first compound, second compound 0.3 µM): < 0.0316 µM | viability, T/C [2]: 103% | viability, T/C [3]: 81.8% | viability, T/C [4]: 84% | viability, T/C [5]: 72.9% | viability, T/C [6]: 53.1% | viability, T/C [7]: 10.1% | viability, T/C (second compound 0.00949 µM, first compound 0.0316 µM): 81.9% | viability, T/C (second compound 0.00949 µM, first compound 0.1 µM): 75% | viability, T/C (second compound 0.00949 µM, first compound 0.316 µM): 79.8% | viability, T/C (second compound 0.00949 µM, first compound 1 µM): 54.1% | viability, T/C (second compound 0.00949 µM, first compound 3.16 µM): 45.2% | viability, T/C (second compound 0.00949 µM, first compound 10 µM): 16.8% | viability, T/C (second compound 0.03 µM, first compound 0.0316 µM): 32.9% | viability, T/C (second compound 0.03 µM, first compound 0.1 µM): 37.2% | viability, T/C (second compound 0.03 µM, first compound 0.316 µM): 35.6% | viability, T/C (second compound 0.03 µM, first compound 1 µM): 33.1% | viability, T/C (second compound 0.03 µM, first compound 3.16 µM): 11.7% | viability, T/C (second compound 0.03 µM, first compound 10 µM): 7.5% | viability, T/C (second compound 0.0949 µM, first compound 0.0316 µM): 6% | viability, T/C (second compound 0.0949 µM, first compound 0.1 µM): 6.44% | viability, T/C (second compound 0.0949 µM, first compound 0.316 µM): 4.34% | viability, T/C (second compound 0.0949 µM, first compound 1 µM): 5.8% | viability, T/C (second compound 0.0949 µM, first compound 3.16 µM): 5.25% | viability, T/C (second compound 0.0949 µM, first compound 10 µM): 6.46% | viability, T/C (second compound 0.3 µM, first compound 0.0316 µM): 1.9% | viability, T/C (second compound 0.3 µM, first compound 0.1 µM): 2.19% | viability, T/C (second compound 0.3 µM, first compound 0.316 µM): 2.16% | viability, T/C (second compound 0.3 µM, first compound 1 µM): 2.06% | viability, T/C (second compound 0.3 µM, first compound 3.16 µM): 2.3% | viability, T/C (second compound 0.3 µM, first compound 10 µM): 2.37%

COc1ccc([C@@H](O)c2cc(-c3ncnc4cc(N5CCOCC5)ccc34)c(F)cc2Cl)nn1
viability, T/C (compound 0.0316 µM): 101% and 96.8% and 105% | viability, T/C (compound 0.1 µM): 92.6% and 110% and 104% | viability, T/C (compound 0.316 µM): 90.7% and 98.8% and 92.3% | viability, T/C (compound 1 µM): 65.5% and 76.1% and 72.6% | viability, T/C (compound 3.16 µM): 38% and 44.5% and 42.9% | viability, T/C (compound 10 µM): 18.8% and 22.8% and 19.7% | IC50 (curve of compound): 1.93 µM and 2.52 µM and 2.4 µM

[2H]c1nc(C)nc([2H])c1-c1cc(NC[C@@H](C)c2cccc3c(C(=O)NC)ccnc23)ncn1 + COc1cc2c(cc1O)CCNC21CSC2c3c(OC(C)=O)c(C)c4c(c3C(COC1=O)N1C(O)C3Cc5cc(C)c(OC)c(O)c5C(C21)N3C)OCO4
IC50 (curve of first compound, second compound 30 pM): > 10 µM | IC50 (curve of first compound, second compound 94.9 pM): > 10 µM | IC50 (curve of first compound, second compound 0.0003 µM): 0.0727 µM | IC50 (curve of first compound, second compound 0.000949 µM): < 0.0316 µM | IC50 [1]: < 0.0316 µM | viability, T/C (second compound 30 pM, first compound 0.0316 µM): 91.2% | viability, T/C (second compound 30 pM, first compound 0.1 µM): 106% | viability, T/C (second compound 30 pM, first compound 0.316 µM): 100% | viability, T/C (second compound 30 pM, first compound 1 µM): 101% | viability, T/C (second compound 30 pM, first compound 3.16 µM): 90.8% | viability, T/C (second compound 30 pM, first compound 10 µM): 92.1% | viability, T/C (second compound 94.9 pM, first compound 0.0316 µM): 89.7% | viability, T/C (second compound 94.9 pM, first compound 0.1 µM): 90.1% | viability, T/C (second compound 94.9 pM, first compound 0.316 µM): 92.3% | viability, T/C (second compound 94.9 pM, first compound 1 µM): 91.5% | viability, T/C (second compound 94.9 pM, first compound 3.16 µM): 83.1% | viability, T/C (second compound 94.9 pM, first compound 10 µM): 82.5% | viability, T/C (second compound 0.0003 µM, first compound 0.0316 µM): 51% | viability, T/C (second compound 0.0003 µM, first compound 0.1 µM): 54.6% | viability, T/C (second compound 0.0003 µM, first compound 0.316 µM): 43.2% | viability, T/C (second compound 0.0003 µM, first compound 1 µM): 40.4% | viability, T/C (second compound 0.0003 µM, first compound 3.16 µM): 50.2% | viability, T/C (second compound 0.0003 µM, first compound 10 µM): 41.5% | viability, T/C (second compound 0.000949 µM, first compound 0.0316 µM): 0.44% | viability, T/C (second compound 0.000949 µM, first compound 0.1 µM): 0.45% | viability, T/C (second compound 0.000949 µM, first compound 0.316 µM): 1.41% | viability, T/C (second compound 0.000949 µM, first compound 1 µM): 0.35% | viability, T/C (second compound 0.000949 µM, first compound 3.16 µM): 0.23% | viability, T/C (second compound 0.000949 µM, first compound 10 µM): 0.31% | viability, T/C [2]: 0.18% | viability, T/C [3]: 0.2% | viability, T/C [4]: 0.14% | viability, T/C [5]: 0.12% | viability, T/C [6]: 0.13% | viability, T/C [7]: 0.25%

From PubChem BioAssay AID1845198 (Molecular Pharmacology Branch, DTP, NCI, 2023)
